Laboratory results as given in patent publication US11236122B2, “Triterpene amine derivatives” (DFH THERAPEUTICS, priority 2018, dated 2022).
Structures can show the parent of a compound that is named as a salt.

Columns and labels:
Format in all cases: cell-based
HIV-1 clade B NL4-3 = test: Viral infectivity assay in TZM-bl cells (luciferase), NL4-3; conditions: DMSO = 100
Excerpt: Plasmids, tissue culture and transfections. HIV-1 clade B molecular clone NL4-3 and cade C clones K3016, ZM247 were obtained from Dr. Christina Ochsenbauer, University of Alabama, USA. Both K3016 and ZM247 were constructed using viral strains from South Africa. The HIV-1 clade C molecular clone pindieC1 was obtained from Dr. Uday Ranga, JNCASR, India. This clone was constructed using an HIV strain from India. HEK-293T and TZM-bl cells were propagated in Dulbecco's modified Eagle's medium (DM4EM) containing 10% fetal bovine serum (FBS). HUT-R5 cells were propagated in RPM 1640 medium supplemented with 10% FBS. For transfections, HEK-293T cells were grown in six well plates to about 80% confluency. Cells were transfected using Lipofectamine 2000 (invitrogen, USA) following manufacturer's recommendations. For viral replication assays, HUT-R5 T-cells were transfected using DEAE dextran as described in Waheed, A. A., Ono, A., and Freed, E. O.; Methods for the study of HIV-1 assembly; Methods Mol. Biol. Clifton N.J. 485, 163-184 (2009).
Preparation of viral stocks. Virus stocks were prepared by transfecting HEK-293T cells with HIV-1 DNAs (3 μg). 24 h post-transfection, the culture medium was replaced with fresh DMEM and incubated for another 2 h. Compounds tested were maintained in the culture throughout transfection. The culture supernatant was centrifuged at 845×g for 3 min to remove cellular debris. The clarified supernatants were filtered (pore size 0.45 µm filter disc) to remove residual cellular contaminants. For determination of viral infectivity, the un-concentrated virus was used to infect TZM-bl cells. For the CA-SP1 accumulation assay, the virus was pelleted by ultra-centrifugation at 210,100×g for 1 h at 4° C. using SW41Ti rotor (Beckman Coulter, USA).
Viral infectivity assays. The virus stocks were normalized for p24 antigen using an HIV-1 p24 Antigen Capture kit (ABL, USA). Equal amounts of virus were used to infect TZM-bl cells (5×10^4/well) in the presence of 20 μg DEAE-dextran per mL in 24 well plate. Single-round infectivity assays were performed as previously described in Checkley, M. A. et al; Reevaluation of the Requirement for TIP47 in Human Immunodeficiency Virus Type 1 Envelope Glycoprotein Incorporation; J. Virol. 87, 3561-3570 (2013). The luciferase activity in the cell lysates was measured using the Steady-Glo luciferase assay kit (Promega, USA) following manufacturer's recommendations.

human PBMCs = test: in vitro; conditions: 7 days
Method: (§1) Human PBMC Preparation. Fresh human PBMCs were isolated from screened donors, seronegative for HIV and HBV (Biological Specialty Corporation, Colmar, Pa.). Cells were pelleted/washed 2-3 times by low speed centrifugation and resuspension in Dulbecco's phosphate buffered saline (PBS) to remove contaminating platelets. The leukophoresed blood was then diluted 1:1 with PBS and layered over 14 mL of Ficoll-Hypaque density gradient (Lymphocyte Separation Medium, Cell Grow #85-072-CL, density 1.078+/−0.002 g/mL) in a 50 mL centrifuge tube and then centrifuged for 30 min at 600×g. Banded PBMCs were gently aspirated from the resulting interface and subsequently washed twice with PBS by low speed centrifugation. After the final wash, cells were enumerated by trypan blue exclusion and re-suspended at 1×10^6 cells/mL in RPMI 1640 supplemented with 15% Fetal Bovine Serum (FBS), 2 mM L-glutamine, 100 U/mL penicillin, […] streptomycin, and 4 μg/mL Phytohemagglutinin (PHA; Sigma, St. Louis, Mo.; cat #L1668). The cells were allowed to incubate for 48-72 h at 37° C. After incubation, PBMCs were centrifuged and resuspended in RPMI 1640 with 15% FBS, L-glutamine, penicillin, streptomycin, non-essential amino acids (MEM/NEAA; Hyclone; cat #SH30238.01), and 20 U/mL recombinant human IL-2 (R&D Systems Inc., Minneapolis, Minn.; cat #202IL). PBMCs were maintained in this medium at a concentration of 1-2×10^6 cells/mL, with twice-weekly medium changes until they were used in the assay protocol. Monocytes-derived-macrophages were depleted from the culture as the result of adherence to the tissue culture flask.
(§2) PBMC Assay. For the standard PBMC assay, PHA stimulated cells from at least two normal donors were pooled (mixed together), diluted in fresh medium to a final concentration of 1×10^6 cells/mL, and plated in the interior wells of a 96 well round bottom microplate at 50 μL/well (5×10^4 cells/well) in a standard formate developed by the Infectious Disease Research Department of the SRI. Pooling (mixing) of mononuclear cells from more than one donor was used to minimize the variability observed between individual donors, which results from quantitative and qualitative differences in HIV infection and overall response to the PHA and IL-2 of primary lymphocyte populations. Each plate contains virus control wells (cells plus virus) and experimental wells (drug plus cells plus virus). Test drug dilutions were prepared at a 2× concentration in microtiter tubes and 100 μL of each concentration was placed in appropriate wells using the standard format. 50 μL of a predetermined dilution of virus stock was placed in each test well (final MOI≈0.1). Separate plates were prepared identically without virus for drug cytotoxicity studies using an MTS assay system (described below; cytotoxicity plates also include compound control wells containing drug plus media without cells to control for colored compounds that affect the MTS assay). The PBMC cultures were maintained for seven days following infection at 37° C., 5% CO2. After this period, cell-free supernatant samples were collected for analysis of reverse transcriptase activity, and compound cytotoxicity was measured by addition of MTS to the separate cytotoxicity plates for determination of cell viability. Wells were also examined microscopically and any abnormalities were noted.
(§3) MTS Staining for PBMC Viability to Measure Cytotoxicity. At assay termination, the uninfected assay plates were stained with the soluble tetrazolium-based dye MTS (CellTiter 96 Reagent, Promega) to determine cell viability and quantify compound toxicity. MTS is metabolized by the mitochondria enzymes of metabolically active cells to yield a soluble formazan product, allowing the rapid quantitative analysis of cell viability and compound cytotoxicity. […] At termination of the assay, […] of MTS reagent was added per well and the microtiter plates were then incubated at 37° C., 5% CO2 to assess cell viability. […]

in vitro = conditions: human
Method: as §1, §2, §3

SMILES | % Relative Infectivity NL4-3 10 nM (HIV-1 clade B NL4-3) | % Relative Infectivity NL4-3 100 nM (HIV-1 clade B NL4-3) | CC50 (human PBMCs) | CC50 at 7 days (in vitro)
C=C(C)[C@@H]1CC[C@]2(CCNCCN3CCS(=O)(=O)CC3)CC[C@]3(C)[C@H](CC[C@@H]4[C@@]5(C)CC[C@H](OC(=O)CC(C)(C)C(=O)O)C(C)(C)[C@@H]5CC[C@]43C)[C@@H]12 [Compound 51ee, (3β)-17-[[[2-[2-(1,1-Dioxothiomorpholin-4-yl)]Ethyl]Amino]Ethyl]-28-norlup-20(29)-en-3-ol, 3-(1-Hydrogen 2,2-Dimethylbutanedioate)] | 15.4% | 4.4% | > 1000 nM | > 1000 nM
C=C(C)[C@@H]1CC[C@]2(CCNCCN3CCN(S(C)(=O)=O)CC3)CC[C@]3(C)[C@H](CC[C@@H]4[C@@]5(C)CC[C@H](OC(=O)CC(C)(C)C(=O)O)C(C)(C)[C@@H]5CC[C@]43C)[C@@H]12 [Compound 51ff, (3β)-17-[2-[[2-[4-(Methylsulfonyl)piperazin-1-yl]ethyl]amino]ethyl]-28-norlup-20(29)-en-3-ol, 3-(1-Hydrogen 2,2-Dimethylbutanedioate)] | 20.1% | 2.9% | > 1000 nM | > 1000 nM
C=C(C)[C@@H]1CC[C@]2(CCNC3CCN(CCO)CC3)CC[C@]3(C)[C@H](CC[C@@H]4[C@@]5(C)CC[C@H](OC(=O)CC(C)(C)CC(=O)O)C(C)(C)[C@@H]5CC[C@]43C)[C@@H]12 [Compound 51f, (3β)-17-[2-[[1-(2-Hydroxyethyl)piperidin-4-yl]amino]ethyl]-28-norlup-20(29)-en-3-ol, 3-(Hydrogen 3,3-Dimethylpentanedioate), Bis(trifluoroacetate) Salt] | – | – | > 1000 nM | > 1000 nM
C=C(C)[C@@H]1CC[C@]2(CCNCCN3CCN(Cc4ccccc4)CC3)CC[C@]3(C)[C@H](CC[C@@H]4[C@@]5(C)CC[C@H](OC(=O)CC(C)(C)C(=O)O)C(C)(C)[C@@H]5CC[C@]43C)[C@@H]12 [Compound 51hh, (3β)-17-[2-[[2-[4-(Phenylmethyl)piperazin-1-yl]ethyl]amino]ethyl]-28-norlup-20(29)-en-3-ol, 3-(1-Hydrogen 2,2-Dimethylbutanedioate)] | 41.4% | 3.3% | > 1000 nM | > 1000 nM
